From patent US9340590B2 (priority 2011, dated 2016)
Read-outs that look alike come from different tables or passages of the source. Positions of bridges follow the written chain, without caps; N, C: chain ends. Non-standard residues stand in square brackets, D forms with d. Residues, ends and D or L forms follow the SMILES beside them. Trp(1-Me) = Cn1cc(C[C@H](N)C(=O)O)c2ccccc21

Columns and labels:
Experiment in all cases: cell-based
[1] = molecular target: hNav1.5 (Homo sapiens, UniProt Q14524)
[2] = molecular target: hNav1.3 (Homo sapiens, UniProt Q9NY46); details: IonWorks Quattro, use-dependent protocol, hNav1.3; read-out: IWQ Use Nav1.3
[3] = molecular target: hNav1.7 (Homo sapiens, UniProt Q15858); type: cell-based; details: IonWorks Quattro, use-dependent protocol, hNav1.7; read-out: IWQ Use Nav1.7
[4] = IonWorks Quattro, use-dependent protocol, hNav1.5, read-out: IWQ Use Nav1.5

Sequence of hNav1.5 (Q14524 whole entry, looked up): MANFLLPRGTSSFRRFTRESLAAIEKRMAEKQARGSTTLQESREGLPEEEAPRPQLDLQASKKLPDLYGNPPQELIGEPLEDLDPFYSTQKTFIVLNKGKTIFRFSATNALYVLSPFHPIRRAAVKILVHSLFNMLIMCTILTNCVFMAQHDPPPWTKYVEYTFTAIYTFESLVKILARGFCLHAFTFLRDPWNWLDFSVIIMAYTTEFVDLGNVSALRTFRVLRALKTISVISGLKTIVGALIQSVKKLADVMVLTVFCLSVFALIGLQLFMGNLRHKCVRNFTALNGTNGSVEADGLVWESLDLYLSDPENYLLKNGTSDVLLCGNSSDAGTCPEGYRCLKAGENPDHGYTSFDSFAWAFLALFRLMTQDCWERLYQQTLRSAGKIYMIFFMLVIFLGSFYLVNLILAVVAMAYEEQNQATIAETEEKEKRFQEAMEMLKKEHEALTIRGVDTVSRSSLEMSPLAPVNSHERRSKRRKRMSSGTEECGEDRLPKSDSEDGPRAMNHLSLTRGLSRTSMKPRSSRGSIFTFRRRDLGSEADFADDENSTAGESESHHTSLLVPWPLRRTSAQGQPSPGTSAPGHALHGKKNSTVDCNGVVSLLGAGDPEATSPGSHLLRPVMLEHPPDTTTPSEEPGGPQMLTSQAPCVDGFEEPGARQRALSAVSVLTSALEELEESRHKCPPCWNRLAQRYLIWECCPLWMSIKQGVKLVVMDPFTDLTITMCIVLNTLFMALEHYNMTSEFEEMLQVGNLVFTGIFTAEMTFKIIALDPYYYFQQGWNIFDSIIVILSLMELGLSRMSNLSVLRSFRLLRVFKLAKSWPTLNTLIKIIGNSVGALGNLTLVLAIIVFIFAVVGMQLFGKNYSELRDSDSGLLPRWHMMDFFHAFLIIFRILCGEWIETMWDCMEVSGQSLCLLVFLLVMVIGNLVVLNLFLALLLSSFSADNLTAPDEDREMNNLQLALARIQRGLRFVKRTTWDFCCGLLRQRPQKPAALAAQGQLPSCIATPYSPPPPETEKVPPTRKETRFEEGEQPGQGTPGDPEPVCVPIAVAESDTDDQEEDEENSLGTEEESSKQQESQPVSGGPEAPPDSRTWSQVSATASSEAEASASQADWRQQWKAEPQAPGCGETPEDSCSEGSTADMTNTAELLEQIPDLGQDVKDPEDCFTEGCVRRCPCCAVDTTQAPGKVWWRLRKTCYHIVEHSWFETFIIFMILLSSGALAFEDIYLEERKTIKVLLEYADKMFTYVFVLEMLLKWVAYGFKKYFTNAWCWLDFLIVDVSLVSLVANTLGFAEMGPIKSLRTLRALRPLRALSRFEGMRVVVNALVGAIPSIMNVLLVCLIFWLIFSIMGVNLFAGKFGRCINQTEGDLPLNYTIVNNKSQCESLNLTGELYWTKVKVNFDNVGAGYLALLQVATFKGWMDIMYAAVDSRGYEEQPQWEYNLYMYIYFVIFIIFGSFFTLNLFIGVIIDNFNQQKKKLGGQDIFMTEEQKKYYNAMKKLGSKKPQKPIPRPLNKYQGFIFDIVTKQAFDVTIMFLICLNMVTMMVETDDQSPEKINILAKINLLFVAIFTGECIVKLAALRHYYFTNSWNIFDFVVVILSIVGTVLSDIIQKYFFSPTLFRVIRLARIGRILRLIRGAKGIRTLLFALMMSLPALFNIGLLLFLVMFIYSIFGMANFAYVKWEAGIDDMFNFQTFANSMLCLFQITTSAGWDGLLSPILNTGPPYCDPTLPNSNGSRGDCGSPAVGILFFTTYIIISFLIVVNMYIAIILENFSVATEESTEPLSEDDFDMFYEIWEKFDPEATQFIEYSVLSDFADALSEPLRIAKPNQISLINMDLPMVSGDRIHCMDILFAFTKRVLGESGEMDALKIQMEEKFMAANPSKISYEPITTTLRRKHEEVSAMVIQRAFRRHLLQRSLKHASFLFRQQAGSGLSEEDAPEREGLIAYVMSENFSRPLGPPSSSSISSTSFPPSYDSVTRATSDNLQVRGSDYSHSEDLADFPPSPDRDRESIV
Sequence of hNav1.3 (Q9NY46 whole entry, looked up): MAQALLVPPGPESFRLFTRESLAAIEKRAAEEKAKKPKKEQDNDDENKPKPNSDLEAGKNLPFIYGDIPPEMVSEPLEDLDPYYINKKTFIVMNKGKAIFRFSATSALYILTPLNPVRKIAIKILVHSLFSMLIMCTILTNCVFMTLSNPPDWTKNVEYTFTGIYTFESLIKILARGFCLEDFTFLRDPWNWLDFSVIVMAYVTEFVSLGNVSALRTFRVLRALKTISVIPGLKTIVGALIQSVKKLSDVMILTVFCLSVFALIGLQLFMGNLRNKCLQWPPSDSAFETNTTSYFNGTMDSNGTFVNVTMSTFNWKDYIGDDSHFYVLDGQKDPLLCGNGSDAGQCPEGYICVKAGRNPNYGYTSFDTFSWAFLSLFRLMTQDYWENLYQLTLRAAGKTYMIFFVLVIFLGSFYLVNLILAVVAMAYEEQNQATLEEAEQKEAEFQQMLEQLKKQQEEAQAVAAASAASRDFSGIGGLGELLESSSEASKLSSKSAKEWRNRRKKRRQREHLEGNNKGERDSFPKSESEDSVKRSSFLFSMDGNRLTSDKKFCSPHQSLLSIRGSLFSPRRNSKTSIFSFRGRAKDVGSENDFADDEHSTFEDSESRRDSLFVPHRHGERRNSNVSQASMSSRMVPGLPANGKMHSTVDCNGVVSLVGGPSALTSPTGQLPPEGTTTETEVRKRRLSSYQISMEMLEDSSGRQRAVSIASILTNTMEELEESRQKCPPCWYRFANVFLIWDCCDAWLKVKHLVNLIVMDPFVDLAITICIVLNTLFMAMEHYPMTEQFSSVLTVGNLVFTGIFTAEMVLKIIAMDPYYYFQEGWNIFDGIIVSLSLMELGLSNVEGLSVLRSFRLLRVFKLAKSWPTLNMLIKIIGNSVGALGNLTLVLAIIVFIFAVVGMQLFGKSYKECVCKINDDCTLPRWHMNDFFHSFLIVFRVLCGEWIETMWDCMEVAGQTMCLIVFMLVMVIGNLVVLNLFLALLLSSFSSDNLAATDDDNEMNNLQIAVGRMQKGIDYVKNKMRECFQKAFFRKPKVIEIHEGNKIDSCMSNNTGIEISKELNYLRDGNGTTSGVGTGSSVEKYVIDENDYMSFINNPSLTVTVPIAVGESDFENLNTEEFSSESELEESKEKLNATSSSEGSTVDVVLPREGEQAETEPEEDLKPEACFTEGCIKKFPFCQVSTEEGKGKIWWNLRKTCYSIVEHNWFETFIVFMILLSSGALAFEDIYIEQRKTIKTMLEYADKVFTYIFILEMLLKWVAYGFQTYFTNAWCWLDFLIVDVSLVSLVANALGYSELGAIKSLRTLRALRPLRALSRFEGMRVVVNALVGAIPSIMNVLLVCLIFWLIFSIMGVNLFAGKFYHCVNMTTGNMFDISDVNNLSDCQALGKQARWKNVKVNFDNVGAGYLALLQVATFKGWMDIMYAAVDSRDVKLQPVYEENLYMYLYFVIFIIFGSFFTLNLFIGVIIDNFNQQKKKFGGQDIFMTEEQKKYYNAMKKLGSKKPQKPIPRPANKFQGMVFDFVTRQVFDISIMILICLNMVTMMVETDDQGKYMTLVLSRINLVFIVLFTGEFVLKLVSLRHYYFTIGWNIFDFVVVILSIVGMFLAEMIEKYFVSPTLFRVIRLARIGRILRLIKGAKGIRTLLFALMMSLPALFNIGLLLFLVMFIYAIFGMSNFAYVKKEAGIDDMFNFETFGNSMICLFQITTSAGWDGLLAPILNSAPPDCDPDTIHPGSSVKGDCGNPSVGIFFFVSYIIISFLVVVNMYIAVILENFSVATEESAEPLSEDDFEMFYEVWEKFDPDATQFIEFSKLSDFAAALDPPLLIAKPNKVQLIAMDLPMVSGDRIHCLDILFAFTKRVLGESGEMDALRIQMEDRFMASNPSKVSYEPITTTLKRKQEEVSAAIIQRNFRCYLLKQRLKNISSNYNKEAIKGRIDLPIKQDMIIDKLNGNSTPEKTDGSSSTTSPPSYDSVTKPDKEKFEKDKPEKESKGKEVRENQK

Row | SMILES | IC50 ([1]; IWQ Use Nav1.5) [nM] | IC50 [2] [nM] | IC50 [3] [nM] | IC50 [1, 4] [nM]
1 | CC[C@H](C)[C@@H]1NC(=O)[C@@H]2CSSC[C@@H]3NC(=O)[C@H](C(C)C)NC(=O)[C@H](CC(C)C)NC(=O)[C@H](CC(N)=O)NC(=O)[C@@H]4CCCN4C(=O)[C@H](CCCNC(=N)N)NC(=O)[C@H](CSSC[C@H](NC(=O)[C@@H](N)CC(=O)O)C(=O)N[C@@H](CC(C)C)C(=O)NCC(=O)N[C@@H](CCc4ccccc4)C(=O)N[C@@H](CCSC)C(=O)N[C@@H](CCCNC(=N)N)C(=O)N[C@@H](CCCCN)C(=O)N2)NC(=O)[C@H](CSSC[C@@H](C(=O)N[C@@H](CCCCN)C(=O)N[C@@H](Cc2ccc(O)cc2)C(=O)N[C@H](C(=O)N[C@@H](Cc2ccccc2)C(N)=O)C(C)C)NC(=O)[C@H](Cc2c[nH]c4ccccc24)NC(=O)[C@H](CCCCN)NC(=O)[C@H](Cc2c[nH]cn2)NC(=O)[C@H]([C@@H](C)O)NC(=O)[C@H](CCCNC(=N)N)NC(=O)[C@H](CO)NC3=O)NC(=O)[C@H](CCCCN)NC(=O)[C@H](CC(=O)O)NC(=O)[C@H](CC(N)=O)NC(=O)[C@H](CC(=O)O)NC(=O)[C@@H]2CCCN2C1=O [compound 690] | > 5000 | 180 | 90 | 
2 | CC[C@H](C)[C@@H]1NC(=O)[C@@H]2CSSC[C@@H]3NC(=O)[C@H](C(C)C)NC(=O)[C@H](CC(C)C)NC(=O)[C@H](CC(N)=O)NC(=O)[C@@H]4CCCN4C(=O)[C@H](CCCNC(=N)N)NC(=O)[C@H](CSSC[C@H](NC(=O)[C@@H](N)CC(=O)O)C(=O)N[C@@H](CC(C)C)C(=O)NCC(=O)N[C@@H](C)C(=O)N[C@@H](CCSC)C(=O)N[C@@H](CCCNC(=N)N)C(=O)N[C@@H](CCCCN)C(=O)N2)NC(=O)[C@H](CSSC[C@@H](C(=O)N[C@@H](CCCCN)C(=O)N[C@@H](Cc2cn(C)c4ccccc24)C(=O)N[C@H](C(=O)N[C@@H](Cc2ccccc2)C(N)=O)C(C)C)NC(=O)[C@H](Cc2c[nH]c4ccccc24)NC(=O)[C@H](CCCCN)NC(=O)[C@H](Cc2c[nH]cn2)NC(=O)[C@H]([C@@H](C)O)NC(=O)[C@H](CCCNC(=N)N)NC(=O)[C@H](CO)NC3=O)NC(=O)[C@H](CCCCN)NC(=O)[C@H](CC(=O)O)NC(=O)[C@H](CC(N)=O)NC(=O)[C@H](CC(=O)O)NC(=O)[C@@H]2CCCN2C1=O [compound 692] (H-DCLGAMRKCIPDNDKCCRPNLVCSRTHKWCK[Trp(1-Me)]VF-NH2; disulfide 2-17, 9-23, 16-30) |  | 630 | 180 | > 5000
3 | CC[C@H](C)[C@@H]1NC(=O)[C@@H]2CSSC[C@@H]3NC(=O)[C@H](C(C)C)NC(=O)[C@H](CC(C)C)NC(=O)[C@H](CC(N)=O)NC(=O)[C@@H]4CCCN4C(=O)[C@H](CCCNC(=N)N)NC(=O)[C@H](CSSC[C@H](NC(=O)[C@@H](N)CC(=O)O)C(=O)N[C@@H](CC(C)C)C(=O)NCC(=O)N[C@@H](CCSC)C(=O)N[C@@H](CCSC)C(=O)N[C@@H](CCCNC(=N)N)C(=O)N[C@@H](CCCCN)C(=O)N2)NC(=O)[C@H](CSSC[C@@H](C(=O)N[C@@H](CCCCN)C(=O)N[C@@H](Cc2cn(C)c4ccccc24)C(=O)N[C@H](C(=O)N[C@@H](Cc2ccccc2)C(N)=O)C(C)C)NC(=O)[C@H](Cc2c[nH]c4ccccc24)NC(=O)[C@H](CCCCN)NC(=O)[C@H](Cc2c[nH]cn2)NC(=O)[C@H]([C@@H](C)O)NC(=O)[C@H](CCCNC(=N)N)NC(=O)[C@H](CO)NC3=O)NC(=O)[C@H](CCCCN)NC(=O)[C@H](CC(=O)O)NC(=O)[C@H](CC(N)=O)NC(=O)[C@H](CC(=O)O)NC(=O)[C@@H]2CCCN2C1=O [compound 693] (H-DCLGMMRKCIPDNDKCCRPNLVCSRTHKWCK[Trp(1-Me)]VF-NH2; disulfide 2-17, 9-23, 16-30) |  | 100 | 46 | > 5000
4 | CC[C@H](C)[C@@H]1NC(=O)[C@@H]2CSSC[C@@H]3NC(=O)[C@H](C(C)C)NC(=O)[C@H](CC(C)C)NC(=O)[C@H](CC(N)=O)NC(=O)[C@@H]4CCCN4C(=O)[C@H](CCCNC(=N)N)NC(=O)[C@H](CSSC[C@H](NC(=O)[C@@H](N)CC(=O)O)C(=O)N[C@@H](CC(C)C)C(=O)N[C@@H](CCCNC(=N)N)C(=O)N[C@@H](CCSC)C(=O)N[C@@H](CCSC)C(=O)N[C@@H](CCCNC(=N)N)C(=O)N[C@@H](CCCCN)C(=O)N2)NC(=O)[C@H](CSSC[C@@H](C(=O)N[C@@H](CCCCN)C(=O)N[C@@H](Cc2ccc(O)cc2)C(=O)N[C@H](C(=O)N[C@@H](Cc2ccccc2)C(N)=O)C(C)C)NC(=O)[C@H](Cc2c[nH]c4ccccc24)NC(=O)[C@H](CCCCN)NC(=O)[C@H](Cc2c[nH]cn2)NC(=O)[C@H]([C@@H](C)O)NC(=O)[C@H](CCCNC(=N)N)NC(=O)[C@H](CO)NC3=O)NC(=O)[C@H](CCCCN)NC(=O)[C@H](CC(=O)O)NC(=O)[C@H](CC(N)=O)NC(=O)[C@H](CC(=O)O)NC(=O)[C@@H]2CCCN2C1=O [compound 694] (H-DCLRMMRKCIPDNDKCCRPNLVCSRTHKWCKYVF-NH2; disulfide 2-17, 9-23, 16-30) |  | 290 | 80 | > 5000
5 | CC[C@H](C)[C@@H]1NC(=O)[C@@H]2CSSC[C@@H]3NC(=O)[C@H](C(C)C)NC(=O)[C@H](CC(C)C)NC(=O)[C@H](CC(N)=O)NC(=O)[C@H](CO)NC(=O)[C@H](CCCNC(=N)N)NC(=O)[C@H](CSSC[C@H](NC(=O)[C@@H](N)CC(=O)O)C(=O)N[C@@H](CC(C)C)C(=O)NCC(=O)N[C@@H](Cc4ccccc4)C(=O)N[C@@H](CCSC)C(=O)N[C@@H](CCCNC(=N)N)C(=O)N[C@@H](CCCCN)C(=O)N2)NC(=O)[C@H](CSSC[C@@H](C(=O)N[C@@H](CCCCN)C(=O)N[C@@H](Cc2cn(C)c4ccccc24)C(=O)N[C@H](C(=O)N[C@@H](Cc2ccccc2)C(N)=O)C(C)C)NC(=O)[C@H](Cc2c[nH]c4ccccc24)NC(=O)[C@H](CCCCN)NC(=O)[C@H](Cc2c[nH]cn2)NC(=O)[C@H]([C@@H](C)O)NC(=O)[C@H](CCCNC(=N)N)NC(=O)[C@H](CO)NC3=O)NC(=O)[C@H](CCCCN)NC(=O)[C@H](CC(=O)O)NC(=O)[C@H](CC(N)=O)NC(=O)[C@H](CC(=O)O)NC(=O)[C@@H]2CCCN2C1=O [compound 695] (H-DCLGFMRKCIPDNDKCCRSNLVCSRTHKWCK[Trp(1-Me)]VF-NH2; disulfide 2-17, 9-23, 16-30) |  | 30 | 30 | > 5000
6 | CC[C@H](C)[C@@H]1NC(=O)[C@@H]2CSSC[C@@H]3NC(=O)[C@H](C(C)C)NC(=O)[C@H](CC(C)C)NC(=O)[C@H](CC(N)=O)NC(=O)[C@@H]4CCCN4C(=O)[C@H](CCCNC(=N)N)NC(=O)[C@H](CSSC[C@H](NC(=O)[C@@H](N)CC(=O)O)C(=O)N[C@@H](CC(C)C)C(=O)NCC(=O)N[C@@H](C)C(=O)NCC(=O)N[C@@H](CCCNC(=N)N)C(=O)N[C@@H](CCCCN)C(=O)N2)NC(=O)[C@H](CSSC[C@@H](C(=O)N[C@@H](CCCCN)C(=O)N[C@@H](Cc2ccc(O)cc2)C(=O)N[C@H](C(=O)N[C@@H](Cc2ccccc2)C(N)=O)C(C)C)NC(=O)[C@H](Cc2c[nH]c4ccccc24)NC(=O)[C@H](CCCCN)NC(=O)[C@H](Cc2c[nH]cn2)NC(=O)[C@H]([C@@H](C)O)NC(=O)[C@H](CCCNC(=N)N)NC(=O)[C@H](CO)NC3=O)NC(=O)[C@H](CCCCN)NC(=O)[C@H](CC(=O)O)NC(=O)[C@H](CC(N)=O)NC(=O)[C@H](CC(=O)O)NC(=O)[C@@H]2CCCN2C1=O [compound 697] (H-DCLGAGRKCIPDNDKCCRPNLVCSRTHKWCKYVF-NH2; disulfide 2-17, 9-23, 16-30) |  | 4400 | 8100 | > 5000
7 | CC[C@H](C)[C@@H]1NC(=O)[C@@H]2CSSC[C@@H]3NC(=O)[C@H](C(C)C)NC(=O)[C@H](CC(C)C)NC(=O)[C@H](CC(N)=O)NC(=O)[C@@H]4CCCN4C(=O)[C@H](CCCNC(=N)N)NC(=O)[C@H](CSSC[C@H](NC(=O)[C@@H](N)CC(=O)O)C(=O)N[C@@H](CC(C)C)C(=O)NCC(=O)N[C@@H](C)C(=O)N[C@@H](Cc4ccc(O)cc4)C(=O)N[C@@H](CCCNC(=N)N)C(=O)N[C@@H](CCCCN)C(=O)N2)NC(=O)[C@H](CSSC[C@@H](C(=O)N[C@@H](CCCCN)C(=O)N[C@@H](Cc2ccc(O)cc2)C(=O)N[C@H](C(=O)N[C@@H](Cc2ccccc2)C(N)=O)C(C)C)NC(=O)[C@H](Cc2c[nH]c4ccccc24)NC(=O)[C@H](CCCCN)NC(=O)[C@H](Cc2c[nH]cn2)NC(=O)[C@H]([C@@H](C)O)NC(=O)[C@H](CCCNC(=N)N)NC(=O)[C@H](CO)NC3=O)NC(=O)[C@H](CCCCN)NC(=O)[C@H](CC(=O)O)NC(=O)[C@H](CC(N)=O)NC(=O)[C@H](CC(=O)O)NC(=O)[C@@H]2CCCN2C1=O [compound 698] (H-DCLGAYRKCIPDNDKCCRPNLVCSRTHKWCKYVF-NH2; disulfide 2-17, 9-23, 16-30) |  | > 5000 | 4400 | > 5000
8 | CC[C@H](C)[C@@H]1NC(=O)[C@@H]2CSSC[C@@H]3NC(=O)[C@H](C(C)C)NC(=O)[C@H](CC(C)C)NC(=O)[C@H](CC(N)=O)NC(=O)[C@@H]4CCCN4C(=O)[C@H](CCCNC(=N)N)NC(=O)[C@H](CSSC[C@H](NC(=O)[C@@H](N)CC(=O)O)C(=O)N[C@@H](CC(C)C)C(=O)NCC(=O)N[C@@H](C)C(=O)N[C@@H](Cc4cn(C)c5ccccc45)C(=O)N[C@@H](CCCNC(=N)N)C(=O)N[C@@H](CCCCN)C(=O)N2)NC(=O)[C@H](CSSC[C@@H](C(=O)N[C@@H](CCCCN)C(=O)N[C@@H](Cc2ccc(O)cc2)C(=O)N[C@H](C(=O)N[C@@H](Cc2ccccc2)C(N)=O)C(C)C)NC(=O)[C@H](Cc2c[nH]c4ccccc24)NC(=O)[C@H](CCCCN)NC(=O)[C@H](Cc2c[nH]cn2)NC(=O)[C@H]([C@@H](C)O)NC(=O)[C@H](CCCNC(=N)N)NC(=O)[C@H](CO)NC3=O)NC(=O)[C@H](CCCCN)NC(=O)[C@H](CC(=O)O)NC(=O)[C@H](CC(N)=O)NC(=O)[C@H](CC(=O)O)NC(=O)[C@@H]2CCCN2C1=O [compound 699] |  | 320 | 340 | > 5000
